These results are taken from ChEMBL document CHEMBL4616612, “Synthesis and inhibitory effect of cis-guggulsterone on lipopolysaccharide-induced production of nitric oxide in macrophages” (Bioorg Med Chem Lett, 2020).

Series [1] relates to RAW264.7. The experiment in a line: Anti-inflammatory activity in mouse RAW264.7 cells assessed as inhibition of LPS-induced NO production preincubated for 1 hr followed by LPS addition and measured after 24 hrs. Format: functional, cell-based.
Series [2] can be described thus: Cytotoxicity against mouse RAW264 cells assessed as reduction in cell viability at 25 uM incubated for 24 hrs by MTT assay. The format is cell-based.
Series [3] has as its system RAW264.7. The experiment in a line: Anti-inflammatory activity in mouse RAW264.7 cells assessed as reduction in LPS-induced iNOS protein level at 6.25 to 12.5 microM by Western blot analysis. The format is functional, cell-based.
Series [4] relates to RAW264.7. The experiment in a line: Anti-inflammatory activity in mouse RAW264.7 cells assessed as reduction in LPS-induced COX2 protein level at 6.25 to 12.5 microM by Western blot analysis. The format is functional, cell-based.
Series [5] has as its system RAW264.7. The experiment in a line: Anti-inflammatory activity in mouse RAW264.7 cells assessed as reduction in LPS-induced IL6 level preincubated for 2 hrs followed by LPS addition and measured after 18 hrs by ELISA. The format is functional, cell-based.
For series [6], the system named is RAW264.7. The experiment in a line: Anti-inflammatory activity in mouse RAW264.7 cells assessed as reduction in LPS-induced TNFalpha level preincubated for 2 hrs followed by LPS addition and measured after 18 hrs by ELISA. The format is functional, cell-based.
A short description of series [7]: Cytotoxicity against mouse RAW264 cells assessed as reduction in cell viability up to 25 uM incubated for 24 hrs by MTT assay. The format is cell-based.

Calls of active or inactive are those of the source. The rule behind the calls is not given here.

For `COC(=O)[C@@H](N)CCCNC(=N)N[N+](=O)[O-]`, the inhibition entry with RAW264.7 [1] was “Active”.

Take `C/C=C1/C(=O)C[C@H]2[C@@H]3CCC4=CC(=O)CC[C@]4(C)[C@H]3CC[C@]12C` [E-GUGGULSTERONE]: the Activity result in series [2] is “Toxic”; with RAW264.7 [1] it was “Dose-dependent effect”; with RAW264.7 [5], “Dose-dependent effect”; with RAW264.7 [6], “Dose-dependent effect”. For the same molecule, the result in the series on RAW264.7 [3] and in the series with RAW264.7 [4] was Active.

As for `C/C=C1\C(=O)C[C@H]2[C@@H]3CCC4=CC(=O)CC[C@]4(C)[C@H]3CC[C@]12C` [GUGGULSTERONE], the figures for the Activity entry (in series [7]; in the series with RAW264.7 [1]) were “Non-Toxic” and “Dose-dependent effect”, respectively.
